Data as given in US11981658B2, “Substituted aminopyridine compounds as EGFR inhibitors” (YUHAN CORPORATION, priority 2021, dated 2024).
Where two headings read alike, the source gives them in different places.

Tests used:
EGFR Del19/T790M/C797S = EGFR Del19/T790M/C797S (Homo sapiens, UniProt P00533, C797S/DEL746-750/T790M); experiment: Biochemical EGFR kinase inhibition assay (Lance Ultra TR-FRET), triple mutant del19/T790M/C797S
Method in brief: (§1)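 Step 1: compound in kinase buffer, 0.003–10 μM. Step 2: kinase reaction 1 h at room temperature. Step 4: TR-FRET read at 615/665 nm; IC50 calculated.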

EGFR L858R/T790M/C797S = EGFR L858R/T790M/C797S (Homo sapiens, UniProt P00533, C797S/L858R/T790M); experiment: Biochemical EGFR kinase inhibition assay (Lance Ultra TR-FRET), triple mutant L858R/T790M/C797S
Sequence of EGFR L858R/T790M/C797S (P00533 25-1210 T790M/C797S/L858R): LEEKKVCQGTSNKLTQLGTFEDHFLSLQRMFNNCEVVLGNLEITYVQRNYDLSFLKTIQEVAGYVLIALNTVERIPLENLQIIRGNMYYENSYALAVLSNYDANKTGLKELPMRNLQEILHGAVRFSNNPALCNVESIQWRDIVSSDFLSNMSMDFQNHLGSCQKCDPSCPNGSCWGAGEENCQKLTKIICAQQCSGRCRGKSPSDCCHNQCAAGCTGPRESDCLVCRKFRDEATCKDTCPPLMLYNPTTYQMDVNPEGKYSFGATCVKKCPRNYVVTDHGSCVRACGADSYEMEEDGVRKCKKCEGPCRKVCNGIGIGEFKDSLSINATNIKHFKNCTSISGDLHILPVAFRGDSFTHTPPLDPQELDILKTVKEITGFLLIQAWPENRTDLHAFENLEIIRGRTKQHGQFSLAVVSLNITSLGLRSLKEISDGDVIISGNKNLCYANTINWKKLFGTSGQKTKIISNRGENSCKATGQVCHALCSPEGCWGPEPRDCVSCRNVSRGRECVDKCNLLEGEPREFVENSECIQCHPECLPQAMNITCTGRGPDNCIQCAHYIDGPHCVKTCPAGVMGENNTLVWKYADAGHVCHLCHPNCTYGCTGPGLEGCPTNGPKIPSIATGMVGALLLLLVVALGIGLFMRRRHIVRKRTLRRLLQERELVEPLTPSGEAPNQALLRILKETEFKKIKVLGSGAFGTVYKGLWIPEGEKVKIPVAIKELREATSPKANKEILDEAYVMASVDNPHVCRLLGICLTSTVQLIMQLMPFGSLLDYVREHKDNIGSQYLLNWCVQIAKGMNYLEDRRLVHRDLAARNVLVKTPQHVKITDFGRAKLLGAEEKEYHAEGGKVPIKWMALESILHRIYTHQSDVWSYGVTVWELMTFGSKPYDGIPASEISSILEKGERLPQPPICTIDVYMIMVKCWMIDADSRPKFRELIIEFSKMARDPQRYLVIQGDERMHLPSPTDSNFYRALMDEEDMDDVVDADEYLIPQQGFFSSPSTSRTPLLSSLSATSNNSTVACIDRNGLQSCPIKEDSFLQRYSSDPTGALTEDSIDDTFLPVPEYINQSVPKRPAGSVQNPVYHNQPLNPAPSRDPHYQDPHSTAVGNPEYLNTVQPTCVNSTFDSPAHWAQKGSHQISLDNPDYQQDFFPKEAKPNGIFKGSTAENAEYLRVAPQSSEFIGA
Method in brief: as §1

EGFR Del19/C797S = EGFR Del19/C797S (Homo sapiens, UniProt P00533, C797S/DEL746-750); experiment: Biochemical EGFR kinase inhibition assay (Lance Ultra TR-FRET), double mutant del19/C797S
Method in brief: as §1

EGFR L858R/C797S = EGFR L858R/C797S (Homo sapiens, UniProt P00533, C797S/L858R); experiment: Biochemical EGFR kinase inhibition assay (Lance Ultra TR-FRET), double mutant L858R/C797S
Sequence of EGFR L858R/C797S (P00533 25-1210 C797S/L858R): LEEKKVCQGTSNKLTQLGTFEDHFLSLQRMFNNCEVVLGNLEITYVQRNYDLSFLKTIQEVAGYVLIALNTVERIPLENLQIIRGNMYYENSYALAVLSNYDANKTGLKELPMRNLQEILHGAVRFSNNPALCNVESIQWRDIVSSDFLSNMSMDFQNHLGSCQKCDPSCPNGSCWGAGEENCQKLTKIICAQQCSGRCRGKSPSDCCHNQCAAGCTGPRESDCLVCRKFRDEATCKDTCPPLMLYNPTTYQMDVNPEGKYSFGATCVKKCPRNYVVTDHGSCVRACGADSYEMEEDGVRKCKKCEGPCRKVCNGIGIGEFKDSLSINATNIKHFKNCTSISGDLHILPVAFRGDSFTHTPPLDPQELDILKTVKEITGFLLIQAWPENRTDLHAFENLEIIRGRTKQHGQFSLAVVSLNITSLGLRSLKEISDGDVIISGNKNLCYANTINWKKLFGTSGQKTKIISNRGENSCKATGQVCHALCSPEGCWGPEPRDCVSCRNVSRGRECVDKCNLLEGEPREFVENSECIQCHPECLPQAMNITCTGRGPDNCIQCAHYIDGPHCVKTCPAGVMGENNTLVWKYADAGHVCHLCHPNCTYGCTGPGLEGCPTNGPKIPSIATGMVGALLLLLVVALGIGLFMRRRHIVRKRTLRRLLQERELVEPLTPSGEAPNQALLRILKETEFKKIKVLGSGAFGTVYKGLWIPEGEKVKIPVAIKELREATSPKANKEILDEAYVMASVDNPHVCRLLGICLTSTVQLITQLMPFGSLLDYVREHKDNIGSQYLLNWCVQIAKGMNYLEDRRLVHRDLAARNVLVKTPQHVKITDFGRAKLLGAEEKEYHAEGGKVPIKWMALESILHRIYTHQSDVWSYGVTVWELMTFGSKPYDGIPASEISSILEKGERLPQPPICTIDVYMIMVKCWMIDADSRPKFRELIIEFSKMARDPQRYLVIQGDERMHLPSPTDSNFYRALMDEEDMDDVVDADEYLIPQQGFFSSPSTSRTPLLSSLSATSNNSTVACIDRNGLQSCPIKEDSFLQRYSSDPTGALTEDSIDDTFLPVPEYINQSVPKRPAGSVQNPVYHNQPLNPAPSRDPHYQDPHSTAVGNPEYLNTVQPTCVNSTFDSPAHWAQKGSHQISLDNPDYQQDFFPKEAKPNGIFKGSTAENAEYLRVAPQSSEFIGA
Method in brief: as §1

EGFR wildtype (WT) = EGFR wildtype (WT) (Homo sapiens, UniProt P00533); experiment: Biochemical EGFR kinase inhibition assay (Lance Ultra TR-FRET), wildtype
Sequence of EGFR wildtype (WT) (P00533 25-1210): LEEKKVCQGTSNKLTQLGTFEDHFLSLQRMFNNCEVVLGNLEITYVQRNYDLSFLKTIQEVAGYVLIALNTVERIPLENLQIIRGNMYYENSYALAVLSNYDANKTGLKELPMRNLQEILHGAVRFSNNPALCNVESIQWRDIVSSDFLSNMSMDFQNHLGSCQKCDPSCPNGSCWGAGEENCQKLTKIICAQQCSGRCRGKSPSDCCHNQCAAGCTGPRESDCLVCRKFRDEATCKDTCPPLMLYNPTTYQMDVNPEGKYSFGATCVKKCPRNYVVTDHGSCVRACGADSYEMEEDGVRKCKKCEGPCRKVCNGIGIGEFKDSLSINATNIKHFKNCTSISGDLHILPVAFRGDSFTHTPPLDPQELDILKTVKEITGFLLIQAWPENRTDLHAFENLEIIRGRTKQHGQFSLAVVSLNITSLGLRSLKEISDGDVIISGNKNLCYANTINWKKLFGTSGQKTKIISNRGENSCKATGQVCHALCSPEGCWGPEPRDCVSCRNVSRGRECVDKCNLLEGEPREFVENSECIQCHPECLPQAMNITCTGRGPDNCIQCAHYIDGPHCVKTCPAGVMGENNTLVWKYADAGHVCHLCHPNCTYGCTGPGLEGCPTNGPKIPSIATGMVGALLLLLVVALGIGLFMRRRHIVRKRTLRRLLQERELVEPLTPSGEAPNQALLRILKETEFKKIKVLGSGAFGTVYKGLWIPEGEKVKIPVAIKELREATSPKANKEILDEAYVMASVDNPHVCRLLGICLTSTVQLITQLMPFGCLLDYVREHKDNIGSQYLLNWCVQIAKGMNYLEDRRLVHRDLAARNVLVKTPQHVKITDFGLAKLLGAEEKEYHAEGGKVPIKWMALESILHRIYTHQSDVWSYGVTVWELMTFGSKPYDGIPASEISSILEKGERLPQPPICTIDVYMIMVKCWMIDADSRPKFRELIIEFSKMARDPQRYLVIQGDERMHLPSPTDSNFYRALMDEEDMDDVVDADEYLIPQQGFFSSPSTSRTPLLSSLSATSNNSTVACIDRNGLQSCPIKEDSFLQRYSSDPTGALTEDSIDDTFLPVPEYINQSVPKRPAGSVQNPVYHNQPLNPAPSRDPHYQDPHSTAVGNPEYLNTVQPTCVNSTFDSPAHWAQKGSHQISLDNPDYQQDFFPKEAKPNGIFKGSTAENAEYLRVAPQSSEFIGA
Method in brief: as §1

[1] = IC50 Del19/T790M/C797S (nM), 100 μM ATP
[2] = Km ATP, read-out: IC50 Del19/T790M/C797S (nM), Km ATP
[3] = IC50 L858R/T790M/C797S (nM), 100 μM ATP
[4] = Km ATP, read-out: IC50 L858R/T790M/C797S (nM), Km ATP
[5] = IC50 Del19/C797S (nM), 100 μM ATP
[6] = Km ATP, read-out: IC50 Del19/C797S (nM), Km ATP
[7] = IC50 L858R/C797S (nM), 100 μM ATP
[8] = Km ATP, read-out: IC50 L858R/C797S (nM), Km ATP
[9] = Km ATP, read-out: IC50 WT (nM), Km ATP
[10] = Km ATP, read-out: IC50 Del19/T790M/C797S (nM) Km ATP
[11] = Km ATP, read-out: IC50 L858R/T790M/C797S (nM) Km ATP
[12] = Km ATP, read-out: IC50 Del19/C797S (nM) Km ATP
[13] = Km ATP, read-out: IC50 L858R/C797S (nM) Km ATP
[14] = Km ATP, read-out: IC50 WT (nM) Km ATP
[15] = ATP at Km, read-out: IC50 Del19/T790M/C797S (nM), Km ATP
[16] = ATP at Km, read-out: IC50 L858R/T790M/C797S (nM), Km ATP
[17] = ATP at Km, read-out: IC50 Del19/C797S (nM), Km ATP
[18] = ATP at Km, read-out: IC50 L858R/C797S (nM), Km ATP
[19] = ATP at Km, read-out: IC50 WT (nM), Km ATP

Sequence of EGFR Del19/T790M/C797S (P00533 with tags, fused parts or gaps DEL746-750/T790M/C797S): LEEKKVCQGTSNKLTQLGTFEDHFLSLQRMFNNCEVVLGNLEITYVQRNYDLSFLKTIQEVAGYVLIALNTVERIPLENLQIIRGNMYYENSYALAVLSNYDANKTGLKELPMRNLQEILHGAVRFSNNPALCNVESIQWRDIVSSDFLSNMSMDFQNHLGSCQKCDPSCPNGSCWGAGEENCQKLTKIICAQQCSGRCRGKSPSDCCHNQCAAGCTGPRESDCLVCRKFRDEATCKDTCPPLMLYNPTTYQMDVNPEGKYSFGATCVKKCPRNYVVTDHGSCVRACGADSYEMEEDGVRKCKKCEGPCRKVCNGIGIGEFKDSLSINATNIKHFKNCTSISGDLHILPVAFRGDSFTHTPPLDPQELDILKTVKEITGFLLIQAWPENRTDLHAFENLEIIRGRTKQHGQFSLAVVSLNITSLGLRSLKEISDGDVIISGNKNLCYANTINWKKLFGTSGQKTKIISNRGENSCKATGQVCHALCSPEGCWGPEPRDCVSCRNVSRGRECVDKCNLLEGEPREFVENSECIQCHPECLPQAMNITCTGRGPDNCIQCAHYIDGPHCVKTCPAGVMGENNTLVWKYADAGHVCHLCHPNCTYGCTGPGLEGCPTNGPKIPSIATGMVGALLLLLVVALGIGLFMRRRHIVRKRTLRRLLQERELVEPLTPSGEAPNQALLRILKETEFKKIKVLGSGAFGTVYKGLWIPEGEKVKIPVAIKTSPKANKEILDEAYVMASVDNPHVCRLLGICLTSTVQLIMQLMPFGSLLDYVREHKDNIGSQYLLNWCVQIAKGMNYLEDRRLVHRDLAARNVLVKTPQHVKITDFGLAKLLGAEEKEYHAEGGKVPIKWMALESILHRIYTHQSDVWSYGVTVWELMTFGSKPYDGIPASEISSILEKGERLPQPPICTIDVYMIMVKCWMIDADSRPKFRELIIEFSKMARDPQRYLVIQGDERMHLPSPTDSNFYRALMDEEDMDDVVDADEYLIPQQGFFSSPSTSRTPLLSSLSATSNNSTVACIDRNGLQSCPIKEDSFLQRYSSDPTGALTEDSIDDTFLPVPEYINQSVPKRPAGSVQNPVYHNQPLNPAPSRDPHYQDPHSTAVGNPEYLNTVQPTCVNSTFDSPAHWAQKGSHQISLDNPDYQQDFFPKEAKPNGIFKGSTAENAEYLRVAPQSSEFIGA

Structure (SMILES) | IC50 (EGFR Del19/T790M/C797S; [1]) [nM] | IC50 (EGFR Del19/T790M/C797S; [2]) [nM] | IC50 (EGFR L858R/T790M/C797S; [3]) [nM] | IC50 (EGFR L858R/T790M/C797S; [4]) [nM] | IC50 (EGFR Del19/C797S; [5]) [nM] | IC50 (EGFR Del19/C797S; [6]) [nM] | IC50 (EGFR L858R/C797S; [7]) [nM] | IC50 (EGFR L858R/C797S; [8]) [nM] | IC50 (EGFR wildtype (WT); IC50 WT (nM), 100 μM ATP) [nM] | IC50 (EGFR wildtype (WT); [9]) [nM] | IC50 (EGFR Del19/T790M/C797S; [10]) [nM] | IC50 (EGFR L858R/T790M/C797S; [11]) [nM] | IC50 (EGFR Del19/C797S; [12]) [nM] | IC50 (EGFR L858R/C797S; [13]) [nM] | IC50 (EGFR wildtype (WT); [14]) [nM] | IC50 (EGFR Del19/T790M/C797S; [15]) [nM] | IC50 (EGFR L858R/T790M/C797S; [16]) [nM] | IC50 (EGFR Del19/C797S; [17]) [nM] | IC50 (EGFR L858R/C797S; [18]) [nM] | IC50 (EGFR wildtype (WT); [19]) [nM]
Cn1cc(C#Cc2cnc(Nc3ccnc(-c4cnn(S(=O)(=O)C5CC5)c4)n3)cc2N2CCC(C(C)(C)O)CC2)cn1 [Example 11, 2-(1-(2-((2-(1-(Cyclopropylsulfonyl)-1H-pyrazol-4-yl)pyrimidin-4-yl)amino)-5-((1-methyl-1H-pyrazol-4-yl)ethynyl)pyridin-4-yl)piperidin-4-yl)propan-2-ol] | 1.6 |  | 1.2 |  | 9.1 |  | 28.5 |  | > 10000 |  |  |  |  |  |  |  |  |  |  | 
CC(=O)N1CCC(n2cc(C#Cc3cnc(Nc4ccnc(-c5cnn(S(=O)(=O)C6CC6)c5)n4)cc3N3CCCC(CO)C3)cn2)CC1 (centres unmarked) [Example 115, 1-(4-(4-((6-((2-(1-(Cyclopropylsulfonyl)-1H-pyrazol-4-yl)pyrimidin-4-yl)amino)-4-(3-(hydroxymethyl)piperidin-1-yl)pyridin-3-yl)ethynyl)-1H-pyrazol-1-yl)piperidin-1-yl)ethan-1-one] | 1.2 |  | 2.3 |  | 8.1 |  | 15.6 |  | > 10000 |  | 0.9 | 0.9 | 5.4 | 2.9 | 19.6 |  |  |  |  | 
CC1(O)CCN(c2cc(Nc3ccnc(-c4cnn(S(=O)(=O)C5CC5)c4)n3)ncc2C#Cc2ccc(C(=O)N3CCC(O)CC3)cc2)CC1 [Example 442, (4-((6-((2-(1-(Cyclopropylsulfonyl)-1H-pyrazol-4-yl)pyrimidin-4-yl)amino)-4-(4-hydroxy-4-methylpiperidin-1-yl)pyridin-3-yl)ethynyl)phenyl)(4-hydroxypiperidin-1-yl)methanone] | 0.9 | 0.7 | 0.3 | 0.1 | 1.3 |  | 20.3 |  | 9930 |  |  |  |  |  |  |  |  |  |  | 
COC1CCN(c2cc(Nc3ccnc(-c4cnn(S(=O)(=O)C5CC5)c4)n3)ncc2C#Cc2cnn(C3CCOCC3)c2)CC1 [Example 98, 2-(1-(Cyclopropylsulfonyl)-1H-pyrazol-4-yl)-N-(4-(4-methoxypiperidin-1-yl)-5-((1-(tetrahydro-2H-pyran-4-yl)-1H-pyrazol-4-yl)ethynyl)pyridin-2-yl)pyrimidin-4-amine] | 2.1 |  | 9.9 |  | 21.1 |  | 101 |  | > 10000 |  | 2.3 | 2.3 | 15.5 | 7.5 | 72 |  |  |  |  | 
Cn1cc(C#Cc2cnc(Nc3ccnc(Nc4ccccc4S(C)(=O)=O)n3)cc2N2CCC(C)(CO)CC2)cn1 [Example 270, (4-Methyl-1-(5-((1-methyl-1H-pyrazol-4-yl)ethynyl)-2-((2-((2-(methylsulfonyl)phenyl)amino)pyrimidin-4-yl)amino)pyridin-4-yl)piperidin-4-yl)methanol] | 1.2 |  | 4.8 |  | 28 |  | 2800 |  | > 10000 |  |  |  |  |  |  | 0.7 | 1.6 | 27.9 | 72.8 | 111
Cn1ccc(C#Cc2cnc(Nc3ccnc(-c4cnn(S(=O)(=O)C5CC5)c4)n3)cc2N[C@H]2CC[C@@H](O)CC2)n1 [Example 106, (1s,4s)-4-((2-((2-(1-(Cyclopropylsulfonyl)-1H-pyrazol-4-yl)pyrimidin-4-yl)amino)-5-((1-methyl-1H-pyrazol-3-yl)ethynyl)pyridin-4-yl)amino)cyclohexan-1-ol] | 1.1 |  | 1.6 |  | 15.1 |  | 274 |  | > 10000 |  | 1 | 0.6 | 12.5 | 6.1 | 95.5 |  |  |  |  | 
CN(C)CCC1CCN(c2cc(Nc3ccnc(-c4cnn(S(=O)(=O)C5CC5)c4)n3)ncc2C#CC2CCO[C@H]2C(F)(F)F)CC1 (stereo partly drawn) [Example 419, 2-(1-(Cyclopropylsulfonyl)-1H-pyrazol-4-yl)-N-(4-(4-(2-(dimethylamino)ethyl)piperidin-1-yl)-5-(((2R)-2-(trifluoromethyl)tetrahydrofuran-3-yl)ethynyl)pyridin-2-yl)pyrimidin-4-amine] | 1 | 1.1 | 1.5 | 0.4 | 4.8 | 3.9 | 97.5 | 7.1 | > 10000 | 31 |  |  |  |  |  |  |  |  |  | 

Now those with a lower IC50 (EGFR Del19/T790M/C797S; [1]), led by results:

IC50 (EGFR Del19/T790M/C797S; [1]) [nM] | IC50 (EGFR Del19/T790M/C797S; [2]) [nM] | IC50 (EGFR L858R/T790M/C797S; [3]) [nM] | IC50 (EGFR L858R/T790M/C797S; [4]) [nM] | IC50 (EGFR Del19/C797S; [5]) [nM] | IC50 (EGFR Del19/C797S; [6]) [nM] | IC50 (EGFR L858R/C797S; [7]) [nM] | IC50 (EGFR L858R/C797S; [8]) [nM] | IC50 (EGFR wildtype (WT); IC50 WT (nM), 100 μM ATP) [nM] | IC50 (EGFR wildtype (WT); [9]) [nM] | IC50 (EGFR Del19/T790M/C797S; [10]) [nM] | IC50 (EGFR L858R/T790M/C797S; [11]) [nM] | IC50 (EGFR Del19/C797S; [12]) [nM] | IC50 (EGFR L858R/C797S; [13]) [nM] | IC50 (EGFR wildtype (WT); [14]) [nM] | IC50 (EGFR Del19/T790M/C797S; [15]) [nM] | IC50 (EGFR L858R/T790M/C797S; [16]) [nM] | IC50 (EGFR Del19/C797S; [17]) [nM] | IC50 (EGFR L858R/C797S; [18]) [nM] | IC50 (EGFR wildtype (WT); [19]) [nM] | Structure (SMILES)
0.5 | 0.3 | 1.1 | 0.1 | 4.4 | 2.5 | 16.7 | 2.9 | > 10000 | 7.2 |  |  |  |  |  |  |  |  |  |  | O=S(=O)(C1CC1)n1cc(-c2nccc(Nc3cc(N4CCC5(CCCO5)CC4)c(C#Cc4ncc(CN5CCOCC5)cn4)cn3)n2)cn1 [Example 366, 2-(1-(Cyclopropylsulfonyl)-1H-pyrazol-4-yl)-N-(5-((5-(morpholinomethyl)pyrimidin-2-yl)ethynyl)-4-(1-oxa-8-azaspiro[4.5]decan-8-yl)pyridin-2-yl)pyrimidin-4-amine]
0.5 | 0.5 | 1.3 | 0.5 | 9.7 | 7.6 | 61.5 | 10.3 | > 10000 | 48.4 |  |  |  |  |  |  |  |  |  |  | O=S(=O)(C1CC1)n1cc(-c2nccc(Nc3cc(N4CCC[C@@H](O)C4)c(C#Cc4cnn(CCF)c4)cn3)n2)cn1 [Example 440, (R)-1-(2-((2-(1-(Cyclopropylsulfonyl)-1H-pyrazol-4-yl)pyrimidin-4-yl)amino)-5-((1-(2-fluoroethyl)-1H-pyrazol-4-yl)ethynyl)pyridin-4-yl)piperidin-3-ol]
0.3 |  | 0.2 |  | 0.3 |  | 0.6 |  | 47 |  | 0.2 | 0.1 | 0.2 | 0.2 | 0.4 |  |  |  |  |  | CN1CC(n2cc(C#Cc3cnc(Nc4ccnc(-c5cnn(S(=O)(=O)C6CC6)c5)n4)cc3N3CCC(C)(CO)CC3)cn2)C1 [Example 148, (1-(2-((2-(1-(Cyclopropylsulfonyl)-1H-pyrazol-4-yl)pyrimidin-4-yl)amino)-5-((1-(1-methylazetidin-3-yl)-1H-pyrazol-4-yl)ethynyl)pyridin-4-yl)-4-methylpiperidin-4-yl)methanol]
0.2 | 0.2 | 0.4 | 0.2 | 2.9 | 2.1 | 32.4 | 5.5 | 5000 | 10.4 |  |  |  |  |  |  |  |  |  |  | CNCC1(F)CCN(c2cc(Nc3ccnc(-c4cnn(S(=O)(=O)C5CC5)c4)n3)ncc2C#Cc2cnn(C)c2)CC1 [Example 382, 2-(1-(Cyclopropylsulfonyl)-1H-pyrazol-4-yl)-N-(4-(4-fluoro-4-((methylamino)methyl)piperidin-1-yl)-5-((1-methyl-1H-pyrazol-4-yl)ethynyl)pyridin-2-yl)pyrimidin-4-amine]
0.5 |  | 0.7 |  | 2.5 |  | 66.5 |  | 4870 |  |  |  |  |  |  | 0.6 | 0.4 | 2 | 7.5 | 17.7 | CC1(CO)CCN(c2cc(Nc3ccnc(-c4cnn(S(=O)(=O)C5CC5)c4)n3)ncc2C#CC2(O)CCCC2)CC1 [Example 177, 1-((6-((2-(1-(Cyclopropylsulfonyl)-1H-pyrazol-4-yl)pyrimidin-4-yl)amino)-4-(4-(hydroxymethyl)-4-methylpiperidin-1-yl)pyridin-3-yl)ethynyl)cyclopentan-1-ol]
0.3 |  | 0.3 |  | 0.5 |  | 4.1 |  | 783 |  | 0.3 | 0.1 | 0.3 | 0.3 | 3.1 |  |  |  |  |  | CN(C)CCCn1cc(C#Cc2cnc(Nc3ccnc(-c4cnn(S(=O)(=O)C5CC5)c4)n3)cc2N2CCC(F)(CO)CC2)cn1 [Example 121, (1-(2-((2-(1-(Cyclopropylsulfonyl)-1H-pyrazol-4-yl)pyrimidin-4-yl)amino)-5-((1-(3-(dimethylamino)propyl)-1H-pyrazol-4-yl)ethynyl)pyridin-4-yl)-4-fluoropiperidin-4-yl)methanol]
